From publication PMC6837341, “Evolutionarily conserved susceptibility of the mitochondrial respiratory chain to SDHI pesticides and its consequence on the impact of SDHIs on human cultured cells” (PLoS ONE, 2019)
Read-outs that look alike come from different tables or passages of the source.

Key:
[1] = molecular target: T1, quinol cytochrome c reductase (CIII) (Lumbricus terrestris, UniProt Q34945); assay: QCCR activity, earthworm homogenate; type: biochemical
T1 sequence (Q34945 1-379): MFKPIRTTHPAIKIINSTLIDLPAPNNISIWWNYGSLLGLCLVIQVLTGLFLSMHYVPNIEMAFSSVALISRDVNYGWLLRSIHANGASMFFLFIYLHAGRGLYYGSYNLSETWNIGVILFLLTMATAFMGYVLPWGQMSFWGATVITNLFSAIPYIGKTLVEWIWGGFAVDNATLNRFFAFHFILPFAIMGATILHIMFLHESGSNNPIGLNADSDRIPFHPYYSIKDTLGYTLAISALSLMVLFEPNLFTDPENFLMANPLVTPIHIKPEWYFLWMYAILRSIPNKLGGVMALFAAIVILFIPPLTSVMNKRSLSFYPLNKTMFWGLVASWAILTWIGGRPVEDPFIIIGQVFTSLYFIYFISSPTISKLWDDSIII
Method: L. terrestris individuals (n = 5) were collected manually in a household compost in Epernon (France 28230) and identified by the person (Paule Bénit) in charge of this compost. Before use, the worms were washed 5 times with 1× phosphate-buffered saline. A fresh homogenate was prepared from the segments located between the prostomium and clitellum of the 5 individuals. Tissues were placed in 500 μl of an ice-cold medium consisting of 20 mM Tris (pH 7.2), 0.25 M sucrose, 40 mM KCl, 2 mM EGTA, and 1 mg/ml BSA and homogenized using a 1-ml glass-glass Potter-Elvehjem homogenizer. Low-speed centrifugation at 1,500 g for 5 min allowed heavy debris to be discarded. The supernatant was distributed as 50-μl aliquots and kept frozen at -80°C.
RC enzyme activities were spectrophotometrically measured using a pseudo-double-wavelength spectrophotometer (Cary 60, Agilent). Malonate-sensitive succinate quinone dichlorophenolindophenol (DCPIP) reductase (SQDR), as an indicator of the activity of the isolated SDH enzyme (isolated CII), and glycerol-3-phosphate quinone DCPIP reductase (GQDR), as a measure of the activity of the isolated glycerol-3-phosphate dehydrogenase (G3PDH), were assayed as previously described. […] With this aim, we measured the malonate-sensitive succinate cytochrome c reductase (SDH+CIII), glycerol-3-phosphate cytochrome c reductase (G3PDH+CIII) and antimycin-sensitive quinol cytochrome c reductase (CIII) as previously described.
(§1) The effects of eight different SDHIs (up to 500 μM; S2 Fig) were determined on four different biological materials. Because IC50 are known to be affected by the actual absolute activity of the tested enzyme, these IC50 were quantified using similar levels of SDH enzyme activity during the assay. IC50 values were determined using the AAT Bioquest IC50 calculator tool (https://www.aatbio.com/tools/ic50-calculator).

[2] = molecular target: T2, quinol cytochrome c reductase (CIII) (Homo sapiens, UniProt P00156); assay: Antimycin-sensitive quinol cytochrome c reductase (QCCR) activity, freeze-thawed HEK cells; type: biochemical
T2 construct: the pellets were permeabilized by two freeze-thaw cycles before enzyme assays; endogenous in cells; host or cells: HEK293, freeze-thawed cell pellets
Method: The cells were grown in T75 flasks using 10 ml Dulbecco’s modified Eagle's minimal essential medium (DMEM) either containing 1 or 4.5 g/l glucose, 4 mM glutamine (glutamax; Gibco Thermo Fisher Scientific, MA), 2 mM pyruvate and 200 μM uridine (permissive medium, thereafter referred as GlucoMax) or lacking glucose, pyruvate and uridine but containing 4 mM glutamine (nonpermissive medium, thereafter referred as MitoMax; S1 Table). All media were supplemented with 10% fetal calf serum and 100 U/mL each penicillin and streptomycin. HEK293 human embryonic kidney cells were cultured in DMEM containing 4.5 g/L glucose, 4 mM glutamine, 10% fetal calf serum, 200 μM uridine, 2 mM pyruvate, and 100 U/mL each penicillin and streptomycin [9]. Cell pellets (1,500 g for 5 min) were kept frozen (-80°C), and for biochemical studies, the pellets were permeabilized by two freeze-thaw cycles before enzyme assays.
RC enzyme activities were spectrophotometrically measured using a pseudo-double-wavelength spectrophotometer (Cary 60, Agilent). Malonate-sensitive succinate quinone dichlorophenolindophenol (DCPIP) reductase (SQDR), as an indicator of the activity of the isolated SDH enzyme (isolated CII), and glycerol-3-phosphate quinone DCPIP reductase (GQDR), as a measure of the activity of the isolated glycerol-3-phosphate dehydrogenase (G3PDH), were assayed as previously described. To study the effect of SDHIs on the RC, we had to take into consideration the fact that these inhibitors act through binding to quinone-binding sites in the RC. Accordingly, we observed that the extent of the inhibitory effects of these substances varies with the addition of exogenous quinones (Fig 1). […] With this aim, we measured the malonate-sensitive succinate cytochrome c reductase (SDH+CIII), glycerol-3-phosphate cytochrome c reductase (G3PDH+CIII) and antimycin-sensitive quinol cytochrome c reductase (CIII) as previously described.
as §1

[3] = CIII values only indicative, read-out: IC50 QCCR
[4] = Homo sapiens, freeze-thawed HEK cells, CIII values only indicative (reduced quinone added), read-out: IC50 QCCR
[5] = read-out: IC50 QCCR, CIII values only indicative

## Cc1nn(C)c(F)c1C(=O)Nc1ccccc1C(C)CC(C)C (centres unmarked) [Penflufen, penflufen]
[1]; [3]
  IC50: > 500 µM
[2]; [4]
  IC50: > 500 µM

## Cn1cc(C(=O)Nc2ccc(F)cc2-c2ccc(Cl)c(Cl)c2)c(C(F)F)n1 [Bixafen, bixafen]
[1]; [3]
  IC50: ≥ 500 µM
[2]; [4]
  IC50: 15.5 µM

## CC(C)Oc1cccc(NC(=O)c2ccccc2C(F)(F)F)c1 [Flutolanil, flutolanil]
[1]; [5]
  IC50: > 500 µM
[2]; [4]
  IC50: > 500 µM

## Cn1cc(C(=O)Nc2ccccc2-c2cc(F)c(F)c(F)c2)c(C(F)F)n1 [Fluxapyroxad, fluxapyroxad]
[1]; [3]
  IC50: > 500 µM
[2]; [4]
  IC50: > 500 µM

## CC(C)C1C2CCC1c1c(NC(=O)c3cn(C)nc3C(F)F)cccc12 (centres unmarked) [Isopyrazam, isopyrazam]
[1]; [3]
  IC50: 76 µM
[2]; [4]
  IC50: 125 µM

## CC(C)CC(C)c1sccc1NC(=O)c1cn(C)nc1C(F)(F)F (centres unmarked) [Penthiopyrad, penthiopyrad]
[1]; [5]
  IC50: 297 µM
[2]
  IC50: 349 µM

## O=C(Nc1ccccc1-c1ccc(Cl)cc1)c1cccnc1Cl [Boscalid, boscalid]
[1]; [5]
  IC50: > 500 µM
[2]
  IC50: > 500 µM
